From ChEMBL document CHEMBL1143243, “Design, synthesis, evaluation, and crystallographic-based structural studies of HIV-1 protease inhibitors with reduced response to the V82A mutation” (J Med Chem, 2008)

Experiments:
[1] = target: Human immunodeficiency virus type 1 protease (Human immunodeficiency virus 1, UniProt Q72874, V82A); test: Binding affinity to HIV1 protease V82A mutant
Protease = Protease (Human immunodeficiency virus 1, UniProt Q9YQ12); test: Binding affinity to HIV1 protease
[2] = tested on: Human immunodeficiency virus 1; test: Ratio of Ki for HIV1 protease V82A mutant to Ki for wild type HIV1 protease

Protease, sequence (Q9YQ12 whole entry): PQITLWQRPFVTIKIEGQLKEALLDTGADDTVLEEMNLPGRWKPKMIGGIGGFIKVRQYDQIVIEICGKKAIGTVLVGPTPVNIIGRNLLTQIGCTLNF

Row | Compound | Ki [1] [nM] | Ki (Protease) [nM] | Ratio Ki [2]
1 | CC(C)[C@H](NC(=O)N(C)Cc1ccccn1)C(=O)N[C@@H](CC1CCCCC1)[C@H](O)[C@@H](O)[C@H](CC1CCCCC1)NC(=O)[C@@H](NC(=O)N(C)Cc1ccccn1)C(C)C | 12 | 6 | 2
2 | CC(C)[C@H](NC(=O)N(C)Cc1ccccn1)C(=O)N[C@@H](Cc1ccccc1)[C@H](O)[C@@H](O)[C@H](CC1CCCCC1)NC(=O)[C@@H](NC(=O)N(C)Cc1ccccn1)C(C)C | – | 3.2 | 4
3 | CC(C)[C@H](NC(=O)N(C)Cc1ccccn1)C(=O)N[C@@H](Cc1ccccc1)[C@H](O)[C@@H](O)[C@H](Cc1ccccc1)NC(=O)[C@@H](NC(=O)N(C)Cc1ccccn1)C(C)C [A-76928] | 9 | 1.3 | 7
